From US4877893A, “Process for the preparation of 2-(O-alkyl)-2-thio-1,3,2-oxathiophospholanes” (priority 1987, dated 1989)

How the values were obtained:
Test in all cases: Fungicidal effect on infected agar nutrient media, colony diameter
Type in all cases: cell-based
Alternaria tenuis = conditions: 5th day after treatment, untreated control 36.8
Description: (§1) Agar nutrient media (Diameter 70 MM, thickness 10 mm) infected by Sclerotonia sclerotinia suspension are treated with 20 EC formulations prepared according to Example 27 and comprising 1, 10, 100 and 1000 ppm, respectively of the active ingredient of the Formula I. The fungicidal effect of the compositions is evaluated on the 3rd day after treatment by measuring the diameter of the Fungi colonies.
The series of measurements according to Example 35 is carried out except that the agar nutrient media are infected by Alternaria Tenius and evaluation is accomplished on the 5th day after treatment.

Sclerotinia sclerotinia = conditions: 3rd day after treatment, untreated control 41.7
Description: as §1

Penicillium cyclopium = conditions: 7th day after treatment, untreated 26.5
Description: as §1
The series of measureents described in Example 35 is carried out except that the agar nutrient media are infected by a Penicillium cyclopium Fungi strain and the test is evaluated on the 7th day after treatment.

| Structure (SMILES) | Diameter of colony (mm) (Alternaria tenuis; 1 ppm) | Diameter of colony (mm) (Alternaria tenuis; 10 ppm) | Diameter of colony (mm) (Alternaria tenuis; 100 ppm) | Diameter of colony (mm) (Alternaria tenuis; 1000 ppm) | Diameter of colony (mm) (Sclerotinia sclerotinia; 1 ppm) | Diameter of colony (mm) (Sclerotinia sclerotinia; 10 ppm) | Diameter of colony (mm) (Sclerotinia sclerotinia; 100 ppm) | Diameter of colony (mm) (Sclerotinia sclerotinia; 1000 ppm) | Diameter of colony (mm) (Penicillium cyclopium; 1 ppm) | Diameter of colony (mm) (Penicillium cyclopium; 10 ppm) | Diameter of colony (mm) (Penicillium cyclopium; 100 ppm) | Diameter of colony (mm) (Penicillium cyclopium; 1000 ppm) |
| --- | --- | --- | --- | --- | --- | --- | --- | --- | --- | --- | --- | --- |
| CC(CI)OP1(=S)OC(C)C(C)S1 (stereo not drawn) [Compound 36] | 32.5 | 20.7 | 4.3 | 0 | 37.2 | 26.9 | 0 | 0 | 23.2 | 16.8 | 7.2 | 0 |
| CC1CSP(=S)(OC(C)C(C)Cl)O1 (stereo not drawn) [Compound 37] | 30.8 | 21.9 | 5.6 | 0 | 39.2 | 27.1 | 0 | 0 | 19.9 | 17.5 | 6.6 | 0 |
| CC1CSP(=S)(OC(C)C(C)Br)O1 (stereo not drawn) [Compound 38] | 30.2 | 24.5 | 6.9 | 0 | 37.8 | 31.3 | 0 | 0 | 24.3 | 18.6 | 7.4 | 0 |
| CC1CSP(=S)(OC(C)C(C)I)O1 (stereo not drawn) [Compound 39] | 34.6 | 23.3 | 7.3 | 0 | 37.2 | 30.2 | 3.6 | 0 | 21.1 | 15.8 | 4.7 | 0 |
| CC(Cl)COP1(=S)OC(C)C(C)S1 (stereo not drawn) [Compound 40] | 31.3 | 21.7 | 6.1 | 0 | 34.9 | 28.0 | 1.9 | 0 | 18.9 | 20.0 | 6.8 | 0 |
| CC(Br)COP1(=S)OC(C)C(C)S1 (stereo not drawn) [Compound 41] | 33.8 | 25.1 | 7.3 | 0 | 37.6 | 30.0 | 2.6 | 0 | 24.1 | 16.4 | 4.9 | 0 |
| CC(I)COP1(=S)OC(C)C(C)S1 (stereo not drawn) [Compound 42] | 32.1 | 20.4 | 9.0 | 0 | 38.2 | 31.2 | 3.5 | 0 | 22.2 | 17.2 | 7.5 | 0 |
| CC(Cl)C(C)OP1(=S)OC(C)C(C)S1 (stereo not drawn) [Compound 43, 2-(0-1',2'-dimethyl-2'-chloroethyl)-2-thio-4,5-dimethyl-1,3,2-oxathiophospholane] | 32.4 | 23.3 | 6.2 | 0 | 37.6 | 28.2 | 2.4 | 0 | 25.2 | 18.4 | 6.3 | 0 |
| CC(Br)C(C)OP1(=S)OC(C)C(C)S1 (stereo not drawn) [Compound 44] | 33.5 | 26.2 | 7.0 | 0 | 35.4 | 28.1 | 4.0 | 0 | 17.9 | 17.1 | 5.1 | 0 |
| CC(I)C(C)OP1(=S)OC(C)C(C)S1 (stereo not drawn) [Compound 45] | 34.0 | 20.4 | 5.7 | 0 | 39.2 | 30.0 | 1.6 | 0 | 24.2 | 15.5 | 6.0 | 0 |
| CCCOP1(=S)OCCS1 (stereo not drawn) [Compound 46, 2-(0-n-propyl)-2-thio-1,3,2-oxathiophospholane] | 34.2 | 24.3 | 5.8 | 0 | 34.6 | 28.7 | 4.2 | 0 | 25.1 | 18.9 | 7.9 | 0 |
| CCCOP1(=S)OC(C)CS1 (stereo not drawn) [Compound 47, 2-(0-n-propyl)-2-thio-5-methyl-1,3,2-oxathiophospholane] | 33.5 | 25.7 | 7.0 | 0 | 33.9 | 30.2 | 3.9 | 0 | 23.8 | 20.1 | 8.3 | 0 |
| CCCOP1(=S)OCC(C)S1 (stereo not drawn) [Compound 48, 2-(0-n-propyl)-2-thio-4-methyl-1,3,2-oxathiophospholane] | 36.1 | 24.6 | 6.3 | 0 | 35.8 | 29.1 | 2.8 | 0 | 24.2 | 19.2 | 8.5 | 0 |
| CCC(C)OP1(=S)OCCS1 (stereo not drawn) [Compound 49] | 34.3 | 25.9 | 7.0 | 0 | 37.2 | 30.4 | 4.0 | 0 | 26.3 | 20.3 | 7.5 | 0 |
| CC(C)COP1(=S)OCCS1 (stereo not drawn) [Compound 50, 2-(0-2'-methyl-n-propyl)-2-thio-1,3,2-oxathiophospholane] | 35.2 | 23.8 | 5.3 | 0 | 36.5 | 29.7 | 3.7 | 0 | 25.1 | 19.2 | 7.7 | 0 |
| CCCOP1(=S)OCC(CC)S1 (stereo not drawn) [Compound 51, 2-(0-n-propyl)-2-thio-4-ethyl-1,3,2-oxathiophospholane] | 35.1 | 24.3 | 6.9 | 0 | 34.3 | 30.0 | 3.2 | 0 | 24.9 | 18.7 | 8.2 | 0 |
| CC(C)COP1(=S)OC(C)CS1 (stereo not drawn) [Compound 52, 2-(0-2'-methyl-n-propyI)-2-thio-5-methyl-1,3,2-oxathiophospholane] | 34.8 | 26.2 | 4.7 | 0 | 37.1 | 28.6 | 3.0 | 0 | 26.2 | 20.0 | 8.8 | 0 |
